From patent US20240238787A1, “PLATE ASSAY DEVICE AND METHOD FOR IN SITU IMAGING” (Duke University, priority 2023, published 2024)

Assays:
[1] = system: P. aeruginosa PA14 biofilm; assay: antibiotic challenge of biofilm on ziggurat peg lid (modified ASTM E2799-22), OD 600 reading and CFU count after sonication; format: cell-based, Pseudomonas aeruginosa PA14; conditions: peg 110, vs no antibiotic; for reduction in CFU on a per area basis: 24 h challenge; for OD600 mean reduction: biofilm recovered in PBS by sonication
Experimental: The applicability lid having pegs 110 with a ziggurat shape was evaluated to the relevant ATSM standard, E2799-22, modified workflow FIG. 6. Specifically, the pegs 110 were inoculated in a 24-well plate with media at step 300 and incubated at step 304. At step 308, the pegs 110 were then challenged with antibiotics and then incubated again at step 312. At step 316, the pegs were washed or rinsed and, at step 320, placed in PBS for imaging. The pegs 110 were sonicated, at step 324, to remove attached biofilm, which was quantified using OD 600 reading, at step 328, and a CFU count, at step 332. Importantly, the lid 100 could be handled in the same fashion as the commercially available peg lid. The pegs 110 were less rigidly attached to the lid 100 than the commercially available peg lid and could be broken off easily for a biofilm growth check, although due to the ring of biofilm at the air-medium interface typical of wild-type PA14, this could also be verified visually. Due to the design, it was also possible to image in situ. With respect to FIGS. 7A-7D, after imaging, OD 600 and CFU counts were performed to verify no loss of function between the lid 100 optimized for imaging and the commercially available peg lid. Specifically, the raw data and mean difference versus no antibiotics are shown for 100 μg/mL tetracycline, 10 μg/mL tetracycline on an OD 600 basis on the MBEC® Assay (FIG. 7A), the modified plate (FIG. 7B), and on a CFU/mm2 for PA14 (FIG. 7C). […] PA14 was grown on pegs in TSB for 24 hours before recovery. Wells were categorized as “inside” (e.g., those on the dash-dot line) or “outside” (e.g., those on the dashed line) according to the layout in FIG. 9B. The mean differences was plotted using bootstrap sampling distributions and 95% confidence interval is indicated by the ends of the vertical error bars using EstimationStats.
Experiments were conducted using Pseudomonas aeruginosa PA14, which constitutively expressed GFP. Cultures were grown over-night in tryptic soy broth (VWR International, USA) at 37° C. and 150 rpm. 10 μL of the overnight culture was used to inoculate 50 mL of fresh TSB. The growth plate (24 well, VWR International, USA) was prepared by dispensing […] of broth per well, adding the peg lid 100, and incubating for 24 h at 37° C. and 100 rpm. […]
Transfers between media and rinse plates were accomplished by lifting the peg lid 100, allowing excess liquid to drip off, and gently placing the lid 100 in the new plate. […] The efficacy of removal from the surface by sonication as not tested, however the resultant OD600 readings for P. aeruginosabetween this and the MBEC® assay were similar […]

[2] = system: P. aeruginosa PA14 biofilm streamers; assay: in situ confocal laser scanning microscopy of biofilm and biofilm streamers on ziggurat peg after antibiotic challenge; format: cell-based, Pseudomonas aeruginosa PA14; conditions: 10 μg/mL
Source text: The intent of this peg 110 is to optimize for in situ confocal imaging. Two imaging techniques were applied to evaluate this. With respect to FIG. 8B, the surface 128i of the distal-most portion 128i of the peg 110 was captured using a tile and z-stack approach. The biomass formed on the edges of the peg 110 and, in the “no antibiotic” samples, could be thick enough to scatter the fluorescent light emission. FIG. 8B illustrates selected 3D tiles of the surface of the surface 128i of the peg 110 with an area of 8.042 mm2. This is known to leave imaging artifacts resembling “holes” in the images observed in FIG. 8B (e.g., “No antibiotic”). Streamers, are often formed in this area. […] With respect to FIGS. 8A and 8C, the surface biomass on the second end 116 analyzed using COMSTAT 2.1 was plotted using EstimationStats. With respect to FIGS. 8D and 8F, the biomass on the second step 128h of the step analyzed using COMSTAT 2.1 was plotted using EstimationStats. […]
Pegs 110, 150, 160, 170, 180, 190 were imaged in PBS with an inverted Zeiss LSM 900 (Zeiss, Germany) using a 488 nm laser for excitation and detection wavelengths of […] (green) for GFP and 590-700 nm (red) for identifying autofluorescence. […] Biomass quantification of antibiotic plate images was performed using Comstat2 v2.1 as an ImageJ plugin. […]

CN(C)[C@@H]1C(O)=C(C(N)=O)C(=O)[C@@]2(O)C(O)=C3C(=O)c4c(O)cccc4[C@@](C)(O)[C@H]3C[C@@H]12 [tetracycline]
reduction in CFU on a per area basis ([1]; 10 μg/mL tetracycline): 0 fold
OD600 mean reduction ([1]; 10 μg/mL tetracycline): 0.02
reduction in CFU on a per area basis ([1]; 100 μg/mL tetracycline): 3 fold
OD600 mean reduction ([1]; 100 μg/mL tetracycline): 0.03
streamer midpoint diameter as % of the no antibiotic streamer ([2]; no antibiotic streamer 309.09±10.43 μm): 12.96%
approximate midpoint diameter of biofilm streamer ([2]; streamer between surface 128i and step 128h, FIG. 8E): ~40.05±11.98 μm
